Laboratory results from patent US9765035B2 (priority 2013, dated 2017).
Where two headings read alike, the source gives them in different places.

Molecular target: T1, human PRMT1 (Homo sapiens, UniProt Q99873)
T1 construct: GST-tagged PRMT1; made in house; host or cells: High Five insect cells (baculovirus)
Assay: biochemical
Description: General Materials. S-adenosylmethionine (SAM), S-adenosylhomocysteine (SAH), bicine, Tween20, dimethylsulfoxide (DMSO), bovine skin gelatin (BSG), and Tris(2-carboxyethyl)phosphine hydrochloride solution (TCEP) were purchased from Sigma-Aldrich at the highest level of purity possible. ^3H-SAM was purchase from American Radiolabeled Chemicals with a specific activity of 80 Ci/mmol. 384-well streptavidin Flashplates were purchased from PerkinElmer.
Substrates. Peptide representative of human histone H4 residues 36-50 was synthesized with an N-terminal linker-affinity tag motif and a C-terminal amide cap by 21st Century Biochemicals. The peptide was purified by high-performance liquid chromatography (HPLC) to greater than 95% purity and confirmed by liquid chromatography mass spectrometry (LC-MS). The sequence was Biot-Ahx-[…]-amide (SEQ ID NO.:1).
Molecular Biology: Full-length human PRMT1 isoform 1 (NM_001536.5) transcript clone was amplified from an HEK 293 cDNA library, incorporating flanking 5′ sequence encoding a FLAG tag ([…]) (SEQ ID NO.:2) fused directly to Met 1 of PRMT1. The amplified gene was subcloned into pFastBacI (Life Technologies) modified to encode an N-terminal GST tag and a TEV cleavage sequence
Protein Expression. Recombinant baculovirus were generated according to Bac-to-Bac kit instructions (Life Technologies). Protein over-expression was accomplished by infecting exponentially growing High Five insect cell culture at 1.5×10^6 cell/ml with 1:100 ratio of virus. Infections were carried out at 27° C. for 48 hours, harvested by centrifugation, and stored at −80° C. for purification.
Protein Purification. […] GST-tagged PRMT1 was eluted with 50 mM Tris, 2 mM glutathione, pH 7.8, dialysed in buffer A and concentrated to 1 mg/mL. The purity of recovered protein was 73%. Reference: Wasilko, D. J. and S. E. Lee: “TIPS: titerless infected-cells preservation and scale-up” Bioprocess J., 5 (2006), pp. 29-32.
General Procedure for PRMT1 Enzyme Assays on Peptide Substrates. The assays were all performed in a buffer consisting of 20 mM Bicine (pH=7.6), 1 mM TCEP, 0.005% BSG, and 0.002% Tween 20, prepared on the day of use. Compounds in 100% DMSO (1 ul) were spotted into a polypropylene 384-well V-bottom plates (Greiner) using a Platemate Plus outfitted with a 384-channel head (Thermo Scientific). DMSO (1 ul) was added to Columns 11, 12, 23, 24, rows A-H for the maximum signal control and 1 ul of SAH, a known product and inhibitor of PRMT1, was added to columns 11, 12, 23, 24, rows I-P for the minimum signal control. A cocktail (40 ul) containing the PRMT1 enzyme was added by Multidrop Combi (Thermo-Fisher). The compounds were allowed to incubate with PRMT1 for 30 min at room temperature, then a cocktail (10 ul) containing SAM and peptide was added to initiate the reaction (final volume=51 ul). The final concentrations of the components were as follows: PRMT1 was 0.5 nM, ^3H-SAM was 200 nM, non-radiolabeled SAM was 1.5 uM, peptide was 20 nM, SAH in the minimum signal control wells was 1 mM, and the DMSO concentration was 2%. The assays were stopped by the addition of non-radiolabeled SAM (10 ul) to a final concentration of 300 uM, which dilutes the ^3H-SAM to a level where its incorporation into the peptide substrate is no longer detectable. 50 ul of the reaction in the 384-well polypropylene plate was then transferred to a 384-well Flashplate and the biotinylated peptides were allowed to bind to the streptavidin surface for at least 1 hour before being washed once with 0.1% Tween20 in a Biotek EL×405 plate washer. The plates were then read in a PerkinElmer TopCount plate reader to measure the quantity of ^3H-labeled peptide bound to the Flashplate surface, measured as disintegrations per minute (dpm) or alternatively, referred to as counts per minute (cpm).
Where dpm=disintegrations per minute, cmpd=signal in assay well, and min and max are the respective minimum and maximum signal controls. […]

[1] = biochemical evaluation, peptide substrate, read-out: PRMT1 IC50
[2] = single experiment or average of multiple experiments, read-out: PRMT1 biochemical evaluation (numerical)

T1 sequence (Q99873 other isoform, or with tags, fused parts or gaps): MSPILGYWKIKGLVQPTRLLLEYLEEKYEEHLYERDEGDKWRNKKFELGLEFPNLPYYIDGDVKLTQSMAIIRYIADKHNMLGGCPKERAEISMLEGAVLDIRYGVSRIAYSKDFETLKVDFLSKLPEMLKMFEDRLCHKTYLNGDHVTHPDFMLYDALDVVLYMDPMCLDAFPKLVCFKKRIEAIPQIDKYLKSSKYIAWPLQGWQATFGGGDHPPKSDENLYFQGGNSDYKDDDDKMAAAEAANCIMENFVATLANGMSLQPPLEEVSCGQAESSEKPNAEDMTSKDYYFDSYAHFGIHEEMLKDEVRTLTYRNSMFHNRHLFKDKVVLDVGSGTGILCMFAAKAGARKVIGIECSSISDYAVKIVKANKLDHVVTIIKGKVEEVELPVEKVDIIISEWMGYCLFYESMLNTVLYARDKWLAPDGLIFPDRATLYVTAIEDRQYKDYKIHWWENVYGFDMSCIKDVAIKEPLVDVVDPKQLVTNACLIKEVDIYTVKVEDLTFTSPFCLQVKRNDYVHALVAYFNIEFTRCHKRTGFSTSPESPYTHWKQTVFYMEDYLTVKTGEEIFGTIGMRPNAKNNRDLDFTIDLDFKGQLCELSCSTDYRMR

Row | IC50 [1] [nM] | IC50 [2] [nM] | Structure (SMILES)
1 | < 100 | 353 | CNCCN(C)Cc1n[nH]c2ccc(Oc3ccccc3C)cc12 [Compound 60]
2 | 101 to 1000 | 23 | CNCCN(C)Cc1n[nH]c2ccc(OCc3cccc(C(C)(C)C)c3)cc12 [Compound 74]
3 | < 100 | 182 | CNCCN(C)Cc1n[nH]c2ccc(OCc3cccc(C(F)(F)F)c3)cc12 [Compound 72]
4 | 101 to 1000 | 43.3 | CNCCN(C)Cc1n[nH]c2ccc(Oc3ccc(Cl)cc3)cc12 [Compound 57]
5 | < 100 | 143 | CNCCN(C)Cc1n[nH]c2ccc(OCc3cccc(C(C)=O)c3)cc12 [Compound 73]
6 | 101 to 1000 | 188 | CNCCN(C)Cc1n[nH]c2ccc(OCc3cccc(NC(C)=O)c3)cc12 [Compound 70]
7 | 1010 to 3000 | 56.5 | CNCCN(C)Cc1nn(C(C)C)c2ccc(OCc3ccc(C#N)cc3)cc12 [Compound 62]
8 | < 100 | 24.8 | CNCCN(C)Cc1n[nH]c2ccc(Oc3cccc(OC(C)C)c3)cc12 [Compound 67]
9 | 101 to 1000 | 91.5 | CNCCN(C)Cc1n[nH]c2ccc(OCc3ccc(C(F)(F)F)cc3)cc12 [Compound 68]
10 | 101 to 1000 | 2000 | CNCCN(C)Cc1n[nH]c2ccc(OCC3CCCCC3)cc12 [Compound 54]
11 | < 100 | 35 | CNCCN(C)Cc1n[nH]c2ccc(OCc3cccc(C(N)=O)c3)cc12 [Compound 66]
12 | 101 to 1000 | 203 | CNCCN(C)Cc1n[nH]c2ccc(OCc3ccc(C(C)(C)C)cc3)cc12 [Compound 71]
13 | 101 to 1000 | 57.9 | CNCCN(C)Cc1n[nH]c2ccc(OC3CCN(C(C)=O)CC3)cc12 [Compound 58, 1-(4-((3-((methyl(2-(methylamino)ethyl)amino)methyl)-1H-indazol-5-yl)oxy)piperidin-1-yl)ethan-1-one]
14 | < 100 | 40.8 | CNCCN(C)Cc1n[nH]c2ccc(Oc3ccc(OC(C)C)cc3)cc12 [Compound 61]
15 | 101 to 1000 | 30.3 | CNCCN(C)Cc1n[nH]c2ccc(OCc3ccc(C(N)=O)cc3)cc12 [Compound 69]
16 | < 100 | 6550 | CNCCN(C)Cc1n[nH]c2ccc(Oc3ccc(C)cc3)cc12 [Compound 55]
17 | < 100 | 994 | CNCCN(C)Cc1n[nH]c2ccc(Oc3ccccc3OC(C)C)cc12 [Compound 56]

The remaining lines, values behind:

Row | Structure (SMILES) | IC50 [1] [nM] | IC50 [2] [nM]
18 | CCCOc1ccc2[nH]nc(CN(C)CCNC)c2c1 [Compound 65] | ≤ 100 | 128
19 | CNCCN(C)Cc1n[nH]c2cccc(OCCCC(O)CO)c12 (stereo not shown) [Compound 41, 5-((3-((methyl(2-(methylamino)ethyl)amino)methyl)-1H-indazol-4-yl)oxy)pentane-1,2-diol] | 101 to 1000 | 67.6
20 | CNCCN(C)Cc1n[nH]c2ccc(OCC3CCCC3)cc12 [Compound 52] | 1010 to 3000 | 3690
21 | CNCCN(C)Cc1c2cc(OCc3ccc(C#N)cc3)ccc2nn1C1CCOCC1 [Compound 53] | 3010 to 10000 | 1760
22 | CNCCN(C)Cc1n[nH]c2ccc(OC(C)C)cc12 [Compound 64] | ≤ 100 | 2630
23 | CNCCN(C)Cc1n[nH]c2ccc(Oc3ccc(OC)cc3)cc12 [Compound 59] | < 100 | 101
24 | CNCCN(C)Cc1n[nH]c2ccc(OCC3CCN(C(C)=O)CC3)cc12 [Compound 51] | 1010 to 3000 | 5520
25 | CNCCN(C)Cc1n[nH]c2ccc(C3=CCOCC3)cc12 [Compound 45] | < 100 | 37.4
26 | CNCCN(C)Cc1n[nH]c2ccc(C3CCOCC3)cc12 [Compound 44, N^1,N^2-dimethyl-N^1-((5-(tetrahydro-2H-pyran-4-yl)-1H-indazol-3-yl)methyl)ethane-1,2-diamine] | < 100 | 43.6
27 | CNCCN(C)Cc1n[nH]c2ccc(C(C)C)cc12 [Compound 42, N^1-((5-isopropyl-1H-indazol-3-yl)methyl)-N^1,N^2-dimethylethane-1,2-diamine] | ≤ 100 | 774
28 | CCOc1ccc2[nH]nc(CN(C)CCNC)c2c1 [Compound 63] | 101 to 1000 | 98.6
29 | CNCCN(C)Cc1n[nH]c2ccc(N3CCCCC3)cc12 [Compound 46, N^1,N^2-dimethyl-N^1-((5-(piperidin-1-yl)-1H-indazol-3-yl)methyl)ethane-1,2-diamine] | < 100 | 21.2
30 | CNCCN(C)Cc1n[nH]c2ccc(OCC3CCOCC3)cc12 [Compound 50] | 3010 to 10000 | 11
31 | CNCCN(C)Cc1n[nH]c2ccc(Oc3ccccc3C(F)(F)F)cc12 [Compound 49] | 3010 to 10000 | 15.7
32 | CNCCN(C)Cc1n[nH]c2ccc(C3CCCCC3)cc12 [Compound 47, N^1-((5-cyclohexyl-1H-indazol-3-yl)methyl)-N^1,N^2-dimethylethane-1,2-diamine] | ≤ 100 | 55.5
33 | CNCCN(C)Cc1n[nH]c2ccc(N3CCC4(CCCCC4)CC3)cc12 [Compound 43, N^1-((5-(3-azaspiro[5.5]undecan-3-yl)-1H-indazol-3-yl)methyl)-N^1,N^2-dimethylethane-1,2-diamine] | < 100 | 434
34 | CNCCN(C)Cc1n[nH]c2ccc(C3=CCCCC3)cc12 [Compound 48] | ≤ 100 | 34
35 | CNCCN(C)Cc1n[nH]c2cccc(OCCC(O)CO)c12 (stereo not shown) [Compound 40] | 101 to 1000 | 3910
